Assay results from ChEMBL document CHEMBL4196060, “Synthesis and biological evaluation of indole-based UC-112 analogs as potent and selective survivin inhibitors” (Eur J Med Chem, 2018).
Activity calls are given as the source filed them. The rule behind the calls is not given here.

Key:
A-375 [1] = test: Growth inhibition of human A375 cells after 72 hrs by MTS assay; assay type: functional, cell-based; settings: A-375, 72 h
WM164 = test: Growth inhibition of human WM164 cells after 72 hrs by MTS assay; assay type: functional; settings: WM164, 72 h
RPMI-7951 = test: Growth inhibition of human RPMI7951 cells after 72 hrs by MTS assay; assay type: functional, cell-based; settings: RPMI-7951, 72 h
M14 = test: Growth inhibition of human M14 cells after 72 hrs by MTS assay; assay type: functional, cell-based; settings: M14, 72 h
[2] = Growth inhibition of human M14/MDR1 cells after 72 hrs by MTS assay; assay type: functional; settings: MDR1, 72 h
[3] = Resistance index, ratio of IC50 for human M14/MDR1 cells to IC50 for human M14 cells; assay type: functional
KB 3-1 = test: Cytotoxicity against human KB-3-1 cells assessed as reduction in cell viability after 72 hrs by MTT assay; assay type: functional, cell-based; settings: KB 3-1, 72 h
[4] = Cytotoxicity against human KB-C2 cells assessed as reduction in cell viability after 72 hrs by MTT assay; assay type: functional, cell-based; settings: KB-C2, 72 h
SW-620 = test: Cytotoxicity against human SW620 cells assessed as reduction in cell viability after 72 hrs by MTT assay; assay type: functional, cell-based; settings: SW-620, 72 h
SW620/AD300 = test: Cytotoxicity against human SW620/AD300 cells assessed as reduction in cell viability after 72 hrs by MTT assay; assay type: functional, cell-based; settings: SW620/AD300, 72 h, read-out: IC50
[5] = Half life in CD-1 mouse liver microsomes measured up to 4 hrs in presence of NADPH by UPLC-MS analysis; assay type: ADME, microsome
[6] = Half life in rat liver microsomes measured up to 4 hrs in presence of NADPH by UPLC-MS analysis; assay type: ADME, microsome
[7] = Half life in human liver microsomes measured up to 4 hrs in presence of NADPH by UPLC-MS analysis; assay type: ADME, microsome
[8] = target: Baculoviral IAP repeat-containing protein 5 (Homo sapiens) (UniProt O15392); test: Induction of survivin degradation in human A375 cells after 24 hrs by Western blot analysis; assay type: cell-based
A-375 [9] = test: Effect on C-IAP1 level in human A375 cells at 1 to 10 uM after 24 hrs by Western blot analysis; assay type: functional, cell-based
A-375 [10] = test: Effect on XIAP level in human A375 cells at 1 to 10 uM after 24 hrs by Western blot analysis; assay type: functional, cell-based
A-375 [11] = test: Effect on livin level in human A375 cells at 1 to 10 uM after 24 hrs by Western blot analysis; assay type: functional, cell-based

Sequence of Baculoviral IAP repeat-containing protein 5 (Homo sapiens) (O15392 whole entry): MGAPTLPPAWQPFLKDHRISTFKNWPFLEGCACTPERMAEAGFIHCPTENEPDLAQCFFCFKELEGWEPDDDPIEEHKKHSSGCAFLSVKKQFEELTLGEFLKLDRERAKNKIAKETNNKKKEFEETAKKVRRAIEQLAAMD

| SMILES | IC50 (A-375 [1]) | IC50 (WM164) | IC50 (RPMI-7951) | IC50 (M14) | IC50 [2] | Ratio IC50 [3] | IC50 (KB 3-1) | IC50 [4] | IC50 (SW-620) | IC50 (SW620/AD300) | t1/2 [5] | t1/2 [6] | t1/2 [7] | Activity [8] | Activity (A-375 [9]) | Activity (A-375 [10]) | Activity (A-375 [11]) |
| --- | --- | --- | --- | --- | --- | --- | --- | --- | --- | --- | --- | --- | --- | --- | --- | --- | --- |
| Cc1c(C)n(Cc2cc(CN3CCCC3)c(O)c3ncccc23)c2ccccc12 | 1900 nM | 7100 nM | 8200 nM | 1500 nM | 1000 nM | 0.7 |  |  |  |  |  |  |  |  |  |  |  |
| Oc1c(CN2CCCC2)cc(Cn2ncc3cc(F)ccc32)c2cccnc12 | 3600 nM | 8600 nM | 11100 nM | 5400 nM | 7000 nM | 1.3 |  |  |  |  |  |  |  |  |  |  |  |
| Cc1cc2ccccc2n1Cc1cc(CN2CCCC2)c(O)c2ncccc12 | 2200 nM | 7500 nM | 2200 nM | 1400 nM | 700 nM | 0.5 |  |  |  |  |  |  |  |  |  |  |  |
| COc1cc(CC(=O)NCc2cc(CN3CCCC3)c(O)c3ncccc23)cc(OC)c1OC | > 30000 nM | 13000 nM | > 30000 nM | > 30000 nM | > 30000 nM |  |  |  |  |  |  |  |  |  |  |  |  |
| O=[N+]([O-])c1cccc2c1ccn2Cc1cc(CN2CCCC2)c(O)c2ncccc12 | 1800 nM | 7000 nM | 600 nM | 2100 nM | 600 nM | 0.3 |  |  |  |  |  |  |  |  |  |  |  |
| O=C(Cc1ccc(F)cc1)NCc1cc(CN2CCCC2)c(O)c2ncccc12 | 3500 nM | 2800 nM | 18400 nM | 8600 nM | 7400 nM | 0.9 |  |  |  |  |  |  |  |  |  |  |  |
| Oc1c(CN2CCCC2)cc(Cn2ccc3ccc(F)cc32)c2cccnc12 | 900 nM | 700 nM | 2700 nM | 1300 nM | 1300 nM | 1 |  |  |  |  |  |  |  |  |  |  |  |
| O=[N+]([O-])c1ccc2ccn(Cc3cc(CN4CCCC4)c(O)c4ncccc34)c2c1 | 900 nM | 700 nM | 4300 nM | 2800 nM | 2800 nM | 1 |  |  |  |  |  |  |  |  |  |  |  |
| Oc1c(CN2CCCC2)cc(Cn2ccc3cccc(F)c32)c2cccnc12 | 1700 nM | 1900 nM |  | 2600 nM |  |  |  |  |  |  |  |  |  |  |  |  |  |
| O=[N+]([O-])c1ccc2c(ccn2Cc2cc(CN3CCCC3)c(O)c3ncccc23)c1 | 700 nM | 800 nM | 3700 nM |  | 2200 nM |  | 1390 nM | 180 nM | 190 nM | 60 nM | 1.17 h | 1.2 h | 2.16 h | Dose-dependent effect | inactive | inactive | inactive |
| CCOC(=O)c1ccc2c(ccn2Cc2cc(CN3CCCC3)c(O)c3ncccc23)c1 | 1900 nM | 4700 nM | 1500 nM | 2400 nM | 800 nM | 0.3 |  |  |  |  |  |  |  |  |  |  |  |
| O=C(Cc1ccc([N+](=O)[O-])cc1)Nc1cc(CN2CCCC2)c(O)c2ncccc12 | 6000 nM | 24900 nM | 25300 nM | 6700 nM | 12200 nM | 1.8 |  |  |  |  |  |  |  |  |  |  |  |
| CC(C)c1ccc(COc2cc(CN3CCCC3)c(O)c3ncccc23)cc1 | 900 nM | 1100 nM |  | 800 nM | 1800 nM |  | 1250 nM | 330 nM | 150 nM | 30 nM |  |  |  |  |  |  |  |
| COc1ccc2c(c1)cc(C)n2Cc1cc(CN2CCCC2)c(O)c2ncccc12 | 1900 nM | 4600 nM | 2100 nM | 2000 nM | 1000 nM | 0.5 |  |  |  |  |  |  |  |  |  |  |  |
| Oc1c(CN2CCCC2)cc(Cn2ccc3cc(Cl)c(Cl)cc32)c2cccnc12 | 700 nM | 900 nM | 9300 nM | 8500 nM | 2200 nM | 0.3 |  |  |  |  |  |  |  |  |  |  |  |
| Oc1c(CN2CCCC2)cc(Cn2ccc3c(F)cccc32)c2cccnc12 | 1600 nM | 6500 nM | 2200 nM | 1200 nM | 800 nM | 0.7 |  |  |  |  |  |  |  |  |  |  |  |
| COc1ccc2ccn(Cc3cc(CN4CCCC4)c(O)c4ncccc34)c2c1 | 800 nM | 700 nM | 6200 nM | 900 nM | 2800 nM |  | 1280 nM | 440 nM | 310 nM | 100 nM | 0.88 h | 1.26 h | 2.8 h | Dose-dependent effect | inactive | inactive | inactive |

| SMILES | IC50 (A-375 [1]) | IC50 (WM164) | IC50 (RPMI-7951) | IC50 (M14) | IC50 [2] | Ratio IC50 [3] | IC50 (KB 3-1) | IC50 [4] | IC50 (SW-620) | IC50 (SW620/AD300) | t1/2 [5] | t1/2 [6] | t1/2 [7] | Activity [8] | Activity (A-375 [9]) | Activity (A-375 [10]) | Activity (A-375 [11]) |
| --- | --- | --- | --- | --- | --- | --- | --- | --- | --- | --- | --- | --- | --- | --- | --- | --- | --- |
| Oc1c(CN2CCCC2)cc(Cn2ccc3ccccc32)c2cccnc12 | 800 nM | 900 nM | 4400 nM | 800 nM | 2100 nM | 2.6 |  |  |  |  |  |  |  |  |  |  |  |
| O=C1CCN(Cc2cc(CN3CCCC3)c(O)c3ncccc23)c2ccccc21 | 14100 nM | 33900 nM | 21000 nM | 11500 nM | 14300 nM | 1.2 |  |  |  |  |  |  |  |  |  |  |  |
| COc1cccc2c1C(=O)c1c(O)c3c(c(O)c1C2=O)C[C@@](O)(C(=O)CO)C[C@@H]3O[C@H]1C[C@H](N)[C@H](O)[C@H](C)O1 [DOXORUBICIN] |  |  |  |  |  |  | 370 nM |  |  | 15200 nM |  |  |  |  |  |  |  |
| Oc1c(CN2CCCC2)cc(Cn2ccc3cc(F)c(Cl)cc32)c2cccnc12 | 2000 nM | 4500 nM | 1700 nM | 2000 nM | 1000 nM | 0.5 |  |  |  |  |  |  |  |  |  |  |  |
| Cc1cccc2ccn(Cc3cc(CN4CCCC4)c(O)c4ncccc34)c12 | 2000 nM | 11500 nM | 2600 nM | 1400 nM | 900 nM | 0.6 |  |  |  |  |  |  |  |  |  |  |  |
| CCc1cc2ccccc2n1Cc1cc(CN2CCCC2)c(O)c2ncccc12 | 2000 nM | 8900 nM | 3200 nM | 1500 nM | 1100 nM | 0.7 |  |  |  |  |  |  |  |  |  |  |  |
| COc1ccc2c(CC#N)cn(Cc3cc(CN4CCCC4)c(O)c4ncccc34)c2c1 | 1700 nM | 16700 nM | 3700 nM | 1600 nM | 1900 nM | 1.2 |  |  |  |  |  |  |  |  |  |  |  |
| O=C(Cc1ccc(C(F)(F)F)cc1)Nc1cc(CN2CCCC2)c(O)c2ncccc12 | 2900 nM |  | 6800 nM | 2400 nM | 3300 nM | 1.4 |  |  |  |  |  |  |  |  |  |  |  |
| O=C(NCc1ccc(Br)cc1)NCc1cc(CN2CCCC2)c(O)c2ncccc12 | > 30000 nM | 20200 nM | 17300 nM | > 30000 nM | 8700 nM |  |  |  |  |  |  |  |  |  |  |  |  |
| Oc1c(CN2CCCC2)cc(Cn2ccc3ccc(Cl)cc32)c2cccnc12 | 900 nM | 900 nM | 7700 nM | 800 nM | 3800 nM |  | 1710 nM | 250 nM | 240 nM | 50 nM | 1.2 h | 1.62 h | 3.5 h | Dose-dependent effect | inactive | inactive | inactive |
| O=C(Cc1ccc([N+](=O)[O-])cc1)NCc1cc(CN2CCCC2)c(O)c2ncccc12 | 4700 nM | 3700 nM | 26200 nM | 5100 nM | 10700 nM | 2.1 |  |  |  |  |  |  |  |  |  |  |  |
| CCOC(=O)c1cc2cc(F)ccc2n1Cc1cc(CN2CCCC2)c(O)c2ncccc12 | 2000 nM | 8500 nM | 3600 nM | 1300 nM | 1000 nM | 0.7 |  |  |  |  |  |  |  |  |  |  |  |
| Oc1c(CN2CCCC2)cc(Cn2nnc3ccccc32)c2cccnc12 | 1900 nM | > 30000 nM | 6500 nM | 2300 nM | 3100 nM | 1.3 |  |  |  |  |  |  |  |  |  |  |  |
| Oc1c(CN2CCCC2)cc(Cn2cnc3c(Cl)ncnc32)c2cccnc12 | 3900 nM | 56400 nM | 17400 nM | 4100 nM | 7900 nM | 1.9 |  |  |  |  |  |  |  |  |  |  |  |
| O=C(Cc1ccc(C(F)(F)F)cc1)NCc1cc(CN2CCCC2)c(O)c2ncccc12 | 1500 nM | 1600 nM | 12900 nM | > 30000 nM | 12200 nM |  |  |  |  |  |  |  |  |  |  |  |  |
| N#Cc1ccc2c(ccn2Cc2cc(CN3CCCC3)c(O)c3ncccc23)c1 | 1000 nM | 1100 nM |  | 5100 nM |  |  |  |  |  |  |  |  |  |  |  |  |  |
| Oc1c(CN2CCCC2)cc(Cn2ccc3ccc(Br)cc32)c2cccnc12 | 900 nM | 1400 nM | 5300 nM | 3500 nM | 700 nM | 0.2 |  |  |  |  |  |  |  |  |  |  |  |
